# Measured values reported in patent US20240358684A1, “METHOD FOR ENHANCING INNATE IMMUNE RESPONSE” (Kyoto University, priority 2021, published 2024).
# pIC50: −log10 of the molar value. “And” between values parts separate entries of the source, which are not always exact repeats. Equal entries are not always repeated.
# How the values were obtained:
# CLK2 = target: T1, CLK2 (Homo sapiens, UniProt P49760); assay: Inhibition confirmation test for CLK (off-chip mobility shift assay); format: biochemical; conditions: ATP 150 μM; read-out: CLK2 inhibitory activity (IC50 value)
# T1 construct: Enzyme activity was measured with off-chip mobility shift assay using purified CLK protein
# T1 sequence (P49760 whole entry): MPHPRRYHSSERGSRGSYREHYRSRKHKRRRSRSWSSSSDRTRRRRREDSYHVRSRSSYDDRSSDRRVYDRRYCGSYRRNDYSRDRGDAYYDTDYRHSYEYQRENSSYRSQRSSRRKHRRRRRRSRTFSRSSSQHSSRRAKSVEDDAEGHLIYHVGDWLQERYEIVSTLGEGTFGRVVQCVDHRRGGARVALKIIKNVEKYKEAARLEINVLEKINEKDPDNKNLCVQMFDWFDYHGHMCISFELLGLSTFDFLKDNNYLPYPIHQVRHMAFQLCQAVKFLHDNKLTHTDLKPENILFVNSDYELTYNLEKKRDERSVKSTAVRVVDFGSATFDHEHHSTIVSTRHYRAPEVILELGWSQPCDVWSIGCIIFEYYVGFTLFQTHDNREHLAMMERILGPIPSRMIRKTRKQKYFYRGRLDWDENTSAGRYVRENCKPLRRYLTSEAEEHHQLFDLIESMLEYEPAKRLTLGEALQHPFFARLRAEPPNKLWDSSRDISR
# Experimental: (§1) Enzyme activity was measured with off-chip mobility shift assay using purified CLK protein. DYRKtide-F peptide (1 μM) was used as a substrate, and a composition of a reaction solution used was as follows (20 mM HEPES (pH7.5), 0.01% Triton X-100, 1 mM DT7, 1% DMSO, and ATP (10 μM for CLK1, 150 μM for CLK2, and 75 μM for CLK3)). The enzyme reaction was performed at room temperature for 1 hour, and the reaction was terminated by adding QuickScout Screening Assist MSA (Carna Biosciences, Inc.). A substrate peptide and a phosphorylated peptide in the enzyme reaction solution were separated and quantified using the LabChip system (Perkin-Elmer, Waltham, MA, USA), and inhibition of CLK was evaluated by calculating a product ratio using the following formula, the substrate peptide peak height (S), and the phosphorylated peptide peak height (P).
# (§2) (P/(P+S)) • P: product-derived peak • S: substrate-derived peak
# CLK3 = target: T2, CLK3 (Homo sapiens, UniProt P49761); assay: as above; format: biochemical; conditions: ATP 75 μM; read-out: CLK3 inhibitory activity (IC50 value)
# T2 construct: Enzyme activity was measured with off-chip mobility shift assay using purified CLK protein
# T2 sequence (P49761 whole entry): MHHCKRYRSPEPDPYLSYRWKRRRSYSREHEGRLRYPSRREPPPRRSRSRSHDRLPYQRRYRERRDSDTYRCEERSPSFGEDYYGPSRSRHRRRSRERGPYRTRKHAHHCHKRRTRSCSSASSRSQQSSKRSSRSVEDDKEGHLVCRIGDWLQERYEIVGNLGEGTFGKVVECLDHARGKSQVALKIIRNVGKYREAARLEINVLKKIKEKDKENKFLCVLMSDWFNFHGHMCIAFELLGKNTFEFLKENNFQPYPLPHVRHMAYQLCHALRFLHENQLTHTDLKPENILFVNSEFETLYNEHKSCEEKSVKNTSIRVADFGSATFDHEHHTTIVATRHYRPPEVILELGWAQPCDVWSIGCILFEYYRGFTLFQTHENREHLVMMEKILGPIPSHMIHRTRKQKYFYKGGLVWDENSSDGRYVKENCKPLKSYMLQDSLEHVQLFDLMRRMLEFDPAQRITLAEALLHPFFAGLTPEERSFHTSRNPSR
# Experimental: as §1, §2
# [1] = system: RNase L pathway (rRNA degradation)
# OAS1 splice variants = assay: RNA-Seq splice-junction reads for OAS1 splice variants in Calu-3 cells; format: cell-based, human; conditions: Calu-3, 10 μM, 18 h
# Experimental: (§3) Transcriptome analysis for compound 1-treated Calu-3 cells RNAs were extracted using RNeasy Mini kit (QIAGEN, Hilden, Germany) from Calu-3 cells, treated with 10 μM compound 1 or 0.1% DMSO for 18 h, and applied for RNA-Seq analysis. Three technical replicates for RNA-Seq, where each experiment was independently conducted three times from a stocked total RNA. RNA-seq reads were mapped to the human genome sequences (GRCh38) using STAR (ver. 2.7.1a, https://github.com/alexdobin/STAR) with ENCODE options, using the Ensembl genome annotation (ver. 102). Raw reads were counted with bam files, and TPM values were calculated using RSEM v1.2.31 (https://github.com/deweylab/RSEM). Differentially expressed genes were identified using the method described above. Differential alternative splicing (DAS) events were analyzed with the method previously described (Sakuma et al., 2015) using the rMATS program (http://rnaseq-mats.sourceforge.net/rmats4.1.1/). DAS was defined by the following criteria: FDR<0.01, read counts≥15, and delta Percent Spliced-In (PSI)≥0.05. The DAS events were compared with the gene annotation information, the event types were then classified into events on the exons constituting the productive mRNAs, events on additional exons/regions of the productive mRNAs, and others. For characterizing gene set and transcriptome profiles, the Metascape website (https://imetascape.org/) and Gene Set Enrichment Analysis (GSEA, https://ww.gsea-maigdb.org/gsea/) were used. The same samples were also used for RT-PCR.
# Calu-3 cells = assay: Transcriptome analysis (RNA-Seq, differential expression and differential alternative splicing) of compound 1-treated Calu-3 cells; format: cell-based, human; conditions: 18 h; for delta PSI: 10 μM
# Experimental: as §3
# [2] = system: OAS1 rs10774671 A-allele splicing; assay: RT-PCR for OAS1 alternative splicing profile in Calu-3 (A/A allele) cells; format: cell-based, human; conditions: Calu-3, 10 μM, 24 h
# IFNB1 = format: cell-based, human
# CLK1 = target: T3, CLK1 (Homo sapiens, UniProt P49759); assay: Inhibition confirmation test for CLK (off-chip mobility shift assay); format: biochemical; conditions: ATP 10 μM; read-out: CLK1 inhibitory activity (IC50 value)
# T3 construct: Enzyme activity was measured with off-chip mobility shift assay using purified CLK protein
# T3 sequence (P49759 whole entry): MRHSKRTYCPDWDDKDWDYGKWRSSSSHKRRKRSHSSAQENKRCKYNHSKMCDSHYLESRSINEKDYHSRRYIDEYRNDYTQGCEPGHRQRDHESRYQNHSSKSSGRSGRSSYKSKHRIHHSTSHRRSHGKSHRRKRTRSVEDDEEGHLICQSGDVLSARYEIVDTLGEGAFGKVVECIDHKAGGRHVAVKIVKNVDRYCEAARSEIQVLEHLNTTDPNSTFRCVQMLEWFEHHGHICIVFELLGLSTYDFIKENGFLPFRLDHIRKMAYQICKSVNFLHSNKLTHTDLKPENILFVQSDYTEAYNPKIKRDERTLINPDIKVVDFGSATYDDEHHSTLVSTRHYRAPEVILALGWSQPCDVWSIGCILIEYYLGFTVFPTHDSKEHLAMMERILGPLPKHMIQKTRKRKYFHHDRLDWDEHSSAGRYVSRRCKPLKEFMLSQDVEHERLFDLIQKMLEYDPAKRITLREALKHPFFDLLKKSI
# Experimental: as §1, with “DYRKtide-F peptide (1 μM) was used as a substrate, and a composition of a reaction solution used was as follows (20 mM HEPES (pH7.5), 0.01% Triton X-100, 1 mM DT7, 1% DMSO, and ATP (10 μM for CLK1, 150 μM for CLK2, and 75 μM for CLK3)).” left out
# as §2
# SARS-CoV-2 = format: cell-based
structure (smiles),measurement,setting,value
N=C1NC(=O)/C(=C/c2ccc3c(c2)CCO3)S1 [compound 1],pIC50,CLK2,7.17
same,pIC50,CLK3,6.94
same,28S rRNA peak fold change,[1],0.56
same,"concentration of decomposition products, sized 2,000-3,000 nucleotides, fold change",[1],1.35
same,p42 variant suppressed (RNA-Seq),OAS1 splice variants,51%
same,p44a variant increased (RNA-Seq),OAS1 splice variants,130%
same,p44b variant increased (RNA-Seq),OAS1 splice variants,100%
same,delta PSI,Calu-3 cells; AAMP Intron between E5-E7 RI,−0.307
same,delta PSI,Calu-3 cells; AC107871.1 E2-E3 SE additional exon,−0.333
same,delta PSI,Calu-3 cells; AL117339.4 E2 SE,0.318
same,delta PSI,Calu-3 cells; AL136531.2 E2-E3 SE additional exon,−0.418
same,delta PSI,Calu-3 cells; AL163636.1 E2 SE,0.331
same,delta PSI,Calu-3 cells; APOL1 E3 A3SS,−0.448
same,delta PSI,Calu-3 cells; CABYR E4 A5SS,0.309
same,delta PSI,Calu-3 cells; CDK5RAP2 E32 SE,0.313
same,delta PSI,Calu-3 cells; CENPE E17 SE,0.422
same,delta PSI,Calu-3 cells; CFAP298 Intron between E5-E7 RI,−0.451
same,delta PSI,Calu-3 cells; CLK1 E4 SE,0.331
same,delta PSI,Calu-3 cells; CLK4 E4 SE,0.37
same,delta PSI,Calu-3 cells; CLK4 Intron between E3-E4 RI,−0.346
same,delta PSI,Calu-3 cells; CLK4 Intron between E4-E5 RI,−0.401
same,delta PSI,Calu-3 cells; CYLD E2-E3 SE additional exon,−0.307
same,"differential expression, number of genes","Calu-3 cells; Calu-3, 10 μM",98 genes
same,"splice alterations yielding protein-coding variants, number of genes","Calu-3 cells; Calu-3, 10 μM",63 genes
same,delta PSI,Calu-3 cells; DCUN1D2 E4-E5 SE additional exon,−0.438
same,delta PSI,Calu-3 cells; DMD E71 SE,0.365
same,delta PSI,Calu-3 cells; DNHD1 Intron between E42-E43 RI,−0.31
same,delta PSI,Calu-3 cells; DNM1 E14 SE,0.342
same,delta PSI,Calu-3 cells; DYNC1LI1 Intron between E8-E10 RI,−0.778
same,delta PSI,Calu-3 cells; EPB41 E16-E17 SE additional exon,−0.301
same,delta PSI,Calu-3 cells; FAAP100 E2 A5SS,−0.318
same,delta PSI,Calu-3 cells; GALT Intron between E2-E6 RI,−0.374
same,delta PSI,Calu-3 cells; GK E9 SE,0.322
same,delta PSI,Calu-3 cells; HAT1 Intron between E6-E8 RI,−0.584
same,delta PSI,Calu-3 cells; HERC3 E17 SE,0.309
same,delta PSI,Calu-3 cells; HERC4 E17 SE,0.38
same,delta PSI,Calu-3 cells; IMPDH2 Intron between E3-E5 RI,−0.376
same,delta PSI,Calu-3 cells; KANSL3 E3 A3SS,−0.309
same,delta PSI,Calu-3 cells; KTN1 E41 SE,0.304
same,delta PSI,Calu-3 cells; LIMCH1 E9 SE,0.42
same,delta PSI,Calu-3 cells; LRP8 E5 SE,0.392
same,delta PSI,Calu-3 cells; LRRC6 E5 SE,0.391
same,delta PSI,Calu-3 cells; LRRC75B E1-E2 SE additional exon,−0.338
same,delta PSI,Calu-3 cells; MAP3K7 E12 SE,0.404
same,delta PSI,Calu-3 cells; MCTP1 E8 SE,0.367
same,delta PSI,Calu-3 cells; METTL26 E2 SE,0.3
same,delta PSI,Calu-3 cells; MON2 E28 SE,0.345
same,delta PSI,Calu-3 cells; MPP3 E11 SE,0.32
same,delta PSI,Calu-3 cells; MSL3 Intron between E4-E6 RI,−0.485
same,delta PSI,Calu-3 cells; MYO6 E34 SE,0.405
same,delta PSI,Calu-3 cells; MYOM1 E18 SE,0.344
same,delta PSI,Calu-3 cells; NAV2 E28 SE,0.437
same,delta PSI,Calu-3 cells; NEK1 E17 SE,0.367
same,delta PSI,Calu-3 cells; NGDN Intron between E4-E7 RI,−0.302
same,delta PSI,Calu-3 cells; OBSL1 E12 SE,0.369
same,delta PSI,Calu-3 cells; PCGF3 E3-E4 SE additional exon,−0.318
same,delta PSI,Calu-3 cells; PDE9A E5 SE,0.378
same,delta PSI,Calu-3 cells; PI4KB E2 SE,0.421
same,delta PSI,Calu-3 cells; PNKP Intron between E14-E16 RI,−0.3
same,delta PSI,Calu-3 cells; PPM1K E2 SE,0.317
same,delta PSI,Calu-3 cells; RBPMS E8 SE,0.301
same,delta PSI,Calu-3 cells; RPGR E14 SE,0.448
same,delta PSI,Calu-3 cells; RPL3 Intron between E7-E9 RI,−0.381
same,delta PSI,Calu-3 cells; RPL13A Intron between E2-E4 RI,−0.654
same,delta PSI,Calu-3 cells; RTN4 E3 SE,0.361
same,delta PSI,Calu-3 cells; SAMD9L Partial Intron on E3 RI,0.364
same,delta PSI,Calu-3 cells; SLC25A29 E2-E3 SE additional exon,−0.314
same,delta PSI,Calu-3 cells; SMARCA1 E13 SE,0.367
same,delta PSI,Calu-3 cells; SNX14 E16 SE,0.336
same,delta PSI,Calu-3 cells; SPATA20 E1-E2 SE additional exon,−0.319
same,delta PSI,Calu-3 cells; TRIM2 E2 SE,0.372
same,delta PSI,Calu-3 cells; TRMU Intron between E9-E11 RI,−0.333
same,delta PSI,Calu-3 cells; WNK1 E11 SE,0.517
same,delta PSI,Calu-3 cells; ZNF519 E3 A3SS,0.316
same,splice-switching for OAS1 with the A-allele (RT-PCR),[2],suppressing p42 splicing while promoting p44a and p44b variant production
same,transcription of IFNB1 during viral infection,IFNB1,increases
same,pIC50,CLK1,7.67
same,viral titer fold change,SARS-CoV-2,0.56
same,log10 (TCID50/ml) Batch-effect corrected,"SARS-CoV-2; 10 μM, 2nd batch replicates, listed as Compund 1",7.6 and 7.44 and 7.41
same,log10 (TCID50/ml),"SARS-CoV-2; 10 μM, raw, single replicates of 1st and 2nd batch, listed as Compund 1",7.5 (2×) and 7.25 and 6.75 and 6.5 and 6.45
same,viral titer,"SARS-CoV-2; Calu-3 pre-treated 24 h with 10 μM, MOI 0.01, 48 hours pi, DMSO control 5.18×10^7",2.90×10^7
